Values quoted from earlier work as cited in patent US20170312269A1, “COMPOSITIONS AND METHODS FOR REDUCING FOOD CRAVINGS” (OREXIGEN THERAPEUTICS, INC., priority 2005, published 2017).

Settings: in vivo; cited from earlier work

CNCCC(Oc1ccc(C(F)(F)F)cc1)c1ccccc1 (stereo not shown) [fluoxetine]
physiological half life: about 9 hours
